Values joined by “and” are separate entries in the source; they are usually repeats but may differ in a detail not shown here. Equal entries are not always repeated.
Tests used:
hNav1.5 [1] = target: T1, hNav1.5 (Homo sapiens, UniProt Q14524); assay: Voltage dependence of fast inactivation (500 ms prepulse); format: cell-based; design: expressed in transfected cells; host or cells: tsA201 (HEK-293 derivative); settings: for net drug-induced shift of half maximal fast inactivation (signed): N = 5
T1 sequence (Q14524 whole entry): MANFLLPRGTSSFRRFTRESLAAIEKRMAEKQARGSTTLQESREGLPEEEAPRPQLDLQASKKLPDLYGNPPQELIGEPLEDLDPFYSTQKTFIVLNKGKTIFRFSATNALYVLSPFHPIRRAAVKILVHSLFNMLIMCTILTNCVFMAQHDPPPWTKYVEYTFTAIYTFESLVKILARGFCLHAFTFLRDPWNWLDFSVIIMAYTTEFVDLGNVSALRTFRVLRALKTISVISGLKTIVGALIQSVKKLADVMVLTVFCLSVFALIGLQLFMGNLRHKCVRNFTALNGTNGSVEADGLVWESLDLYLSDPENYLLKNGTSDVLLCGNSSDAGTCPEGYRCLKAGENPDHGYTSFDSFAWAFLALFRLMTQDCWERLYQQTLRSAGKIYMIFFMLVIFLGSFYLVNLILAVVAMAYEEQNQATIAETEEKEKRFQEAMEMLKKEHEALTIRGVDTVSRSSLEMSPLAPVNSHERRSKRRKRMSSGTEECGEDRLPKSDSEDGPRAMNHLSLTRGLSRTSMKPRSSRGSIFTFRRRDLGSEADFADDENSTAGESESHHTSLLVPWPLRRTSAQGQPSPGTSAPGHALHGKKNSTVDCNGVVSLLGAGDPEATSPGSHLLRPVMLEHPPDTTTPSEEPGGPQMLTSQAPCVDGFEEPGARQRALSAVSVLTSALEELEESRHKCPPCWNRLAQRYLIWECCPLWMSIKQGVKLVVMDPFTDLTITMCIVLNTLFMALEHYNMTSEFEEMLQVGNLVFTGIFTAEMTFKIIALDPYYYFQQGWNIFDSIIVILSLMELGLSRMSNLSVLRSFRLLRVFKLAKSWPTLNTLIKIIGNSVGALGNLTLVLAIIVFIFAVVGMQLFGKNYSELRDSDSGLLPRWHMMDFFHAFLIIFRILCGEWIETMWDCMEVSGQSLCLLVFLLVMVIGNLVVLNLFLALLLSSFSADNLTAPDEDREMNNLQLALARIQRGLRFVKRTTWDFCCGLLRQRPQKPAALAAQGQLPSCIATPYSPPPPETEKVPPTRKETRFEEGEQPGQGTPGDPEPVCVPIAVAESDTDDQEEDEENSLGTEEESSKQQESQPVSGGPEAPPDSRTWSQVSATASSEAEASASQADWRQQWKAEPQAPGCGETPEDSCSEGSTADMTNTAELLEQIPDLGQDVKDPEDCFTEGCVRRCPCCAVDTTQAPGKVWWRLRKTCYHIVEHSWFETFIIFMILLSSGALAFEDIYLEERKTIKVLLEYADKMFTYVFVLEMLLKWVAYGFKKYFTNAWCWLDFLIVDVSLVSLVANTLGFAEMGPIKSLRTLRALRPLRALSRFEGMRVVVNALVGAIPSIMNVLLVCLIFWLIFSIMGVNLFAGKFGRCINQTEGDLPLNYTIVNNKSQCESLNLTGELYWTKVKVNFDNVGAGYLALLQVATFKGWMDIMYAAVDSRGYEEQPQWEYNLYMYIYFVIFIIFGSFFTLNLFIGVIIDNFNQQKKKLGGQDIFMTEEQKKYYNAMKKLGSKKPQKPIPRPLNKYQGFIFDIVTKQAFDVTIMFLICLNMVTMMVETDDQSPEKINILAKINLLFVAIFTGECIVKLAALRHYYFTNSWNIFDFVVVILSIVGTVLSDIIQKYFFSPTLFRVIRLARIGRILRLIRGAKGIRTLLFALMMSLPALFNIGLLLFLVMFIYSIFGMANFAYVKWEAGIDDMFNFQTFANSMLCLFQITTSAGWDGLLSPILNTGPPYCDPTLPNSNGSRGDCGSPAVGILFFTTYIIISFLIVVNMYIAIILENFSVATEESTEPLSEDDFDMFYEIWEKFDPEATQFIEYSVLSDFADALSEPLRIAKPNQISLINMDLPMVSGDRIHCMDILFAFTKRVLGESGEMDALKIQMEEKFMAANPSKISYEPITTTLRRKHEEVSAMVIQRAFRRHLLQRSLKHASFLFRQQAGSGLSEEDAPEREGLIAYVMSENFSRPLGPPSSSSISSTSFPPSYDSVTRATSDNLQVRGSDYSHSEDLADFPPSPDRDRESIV
Procedure: Constraint throughout: ∑i=1nai=1 .
For establishing inactivation curves, the membrane potential was stepped to different prepulse potentials (from −140 to −45 mV; increment 5 mV) for 500 ms before channel activations were carried out by depolarizations to −20 mV. For estimation of inactivation parameters, the normalized peak currents were plotted vs. the prepulse potentials. Inactivation curves, characterized by inactivation midpoints and the curve slope were obtained by data fitting using Eq. 4. […] After a second control, atomoxetine was applied at a concentration of 3 and 10 µM (Figure 4A) For final evaluation of drug effects, first the endogenous shift was estimated for each cell individually by the difference between the two controls. […] We used a cell-specific endogenous shift instead of a global shift, as the endogenous shift is highly variable between individual cells.
FIGURE 4 Voltage dependence of fast inactivation (A) Data of a representative measurement series of normalized peak currents in the absence and presence of atomoxetine are shown. Solid lines represent fits according to Eq. 4.

hNav1.5 [2] = target: T1, hNav1.5; assay: Interaction with the inactivated state: steady-state concentration-response relationship
Procedure: Concentration-inhibition curves for the estimation of Kr (IC50 at −140 mV; Figure 2) or Kapp (Figure 6) were fitted to the Hill equation ID/IC= 1/1+([D]/IC50)^n (1) ID and IC are the current amplitudes in the presence and absence of the drug (D). [D] is the concentration of the drug. IC50 represents the concentration of the blocker that causes 50% inhibition and n is the Hill coefficient.
The affinity to the inactivated state (Ki) was calculated according to ([Bean et al., 1983]) as: 1/Kapp= h/Kr+ (1−h)/Ki (6) Kapp is the apparent affinity estimated at a selected membrane potential at which the amount of non-inactivated channels is given by h (estimated from the corresponding inactivation curve).
Activations were repeated several times at each concentration to achieve steady-state condition (Figure 6A). The holding potential was chosen individually for each cell to be around half maximal inactivation according to a preceding estimation of availability. Before the test pulse a short recovery (100 ms at −160 mV) was carried out (inset to Figure 6A). From the concentration relationship apparent half maximal effective concentrations (Kapp) were calculated using Eq. 1 (Figure 6B). The affinity for the inactivated channel was then calculated according to Eq. 6 which considers the varying amount of inactivated channels in individual experiments.
Activations were carried out every 30 s using a holding potential at which the channels were partly inactivated (relative amount of available channels in this experiment: h = 0.81). Immediately before the activations a short recovery (100 m s) at −160 mV was intercalated (inset). Activations were repeated at each condition until a near stable current amplitude was achieved. (B) The apparent IC50 (IC50app) was calculated from the concentration-dependent decline of the current amplitudes. The affinity to the inactivated state was calculated considering the current amount of available channels according to Eq. 6.

hNav1.5 [3] = target: T1, hNav1.5; assay: Recovery from inactivation (double pulse protocols); format: cell-based; design: expressed in transfected cells; host or cells: tsA201 (HEK-293 derivative)
Excerpt: Current amplitudes were normalized to the maximum peak amplitude of INa in the absence and presence of atomoxetine. Recovery time constants were estimated from double or triple exponential fits according to: I/Imax = 1− a1*e^(−t/τ1) −a2*e^(−t/τ2)− a3*e^(−t/τ3) (10)
Recovery from inactivation was estimated with double pulse protocols using two different durations for the inactivating pulse: 500 ms and 10 s. The test pulse was applied after a variable time spent at the recovery potential of −140 mV (inset Figure 8). Using the short inactivation time of 500 ms, recovery occurred with two time constants. In the absence of atomoxetine about 90% of the channels recovered with a fast time constant (τ 1 = 2.2 ± 0.2 ms), representing recovering from fast inactivation. The remainder recovered with a slower time constant (τ 2 = 37.7 ± 15.6 ms), probably representing recovery from slow inactivation. In the presence of atomoxetine the time constant of the fast component was hardly extended whereas those of the slow time constant was prolongated with little or no change in the relative amount of the two components (Figure 8A, Table 2). […] Using an inactivation time of 10 s, recovery has to be fitted with triple exponential functions, separating the recovery process in a fast, intermediate and a slow component (Figure 8B). In the presence of atomoxetine a profound increase in all time constants resulted. Moreover, the component of the fast time constant decreased and that of the slow component increased in a concentration dependent manner while the amount of the intermediate component stayed almost constant (Table 3).
FIGURE 8 Recovery from inactivation (A) The relative amount of available channels after increasing duration of recovery at −140 mV is illustrated. Inactivation was performed at −20 mV for 500 ms. The pulse protocol is illustrated by the inset. Interval between individual measurements was 10 s and atomoxetine was applied at 3 and 10 µM. Solid lines represent fits with two exponential functions according to Eq. 10. (B) Otherwise identical protocol as in (A) but with the inactivation time set to 10 s. For data fitting, three exponentials were required. For fit parameters see Table 2, N = 5.

hNav1.5 [4] = target: T1, hNav1.5; assay: Tonic block of hNav1.5 channels (resting state, holding potential −140 mV), whole-cell patch clamp in tsA201 cells; settings: N = 5
Procedure: The tsA201 cell line is a derivative of the human embryonic kidney cell line HEK-293 (ATCC#CRL1537, Merck KGaA, Darmstadt, Germany). tsA201 cells were cultured at 37°C in a humidified atmosphere at 95% air and 5% CO2 in MEM (minimum essential medium, Gibco, Eggenstein, Germany) supplemented with 50 U/ml penicillin, 50 μg/ml streptomycin (Gibco), 2 mM L-glutamine (Boehringer, Mannheim, Germany), and 10% fetal calf serum (Gibco). The cells were grown on polyornithine-coated culture dishes to 40% confluency and transfected using the TransFectin LipidReagent kit (Bio-Rad, München, Germany).
Briefly, tsA201 cells were used for experiments 24–48 h after transfection. Membrane currents were recorded in the whole-cell recording mode using an EPC-9 amplifier and Patchmaster software (v2x73; HEKA, Lambrecht, Germany ([Hamill et al., 1981])). Before recording, cells were rinsed twice with an extracellular standard solution containing (in mM): 140 NaCl, 5 KCl, 1.5 CaCl2, 10 glucose and 12 HEPES; adjusted to a final pH of 7.3. Patch pipettes were drawn from borosilicate glass with tip resistances of about 2 MΩ when filled with (in mM): 125 CsF, 10 NaF, 1 MgCl2, 10 EGTA, 10 HEPES; adjusted to a final pH of 7.2. To improve sealing, tips were briefly dipped into 2% dimethylsilane dissolved in dichloromethane. Unless otherwise stated, cells were held at a holding potential of −140 mV from which channel activation was elicited by brief depolarizing pulses to −20 mV of 5 ms duration. To minimize voltage errors, the series resistance was compensated up to 80%. Cells with currents larger than 6 nA were excluded from evaluation.
The medium in the dish (1.5 ml) was continuously exchanged using a "global" bath perfusion with the inflow set to 4.5 ml/min and the outflow removing any excess fluid. Reagents were applied locally to the cells by the L/M-SPS-8 superfusion system (List, Darmstadt, Germany). Switching between the 8 channels of the superfusion system was controlled by magnetic valves. The local inlet (tip of an eight-barrelled pipette) was positioned at a distance of 50–100 μm upstream and the local outlet at about 300 μm downstream of the patch pipette. A constant flow rate of control and test solutions (1 ml/min) was achieved by means of a pressure control system (MPCU-3, Lorenz, Göttingen, Germany). The time of solution exchange was estimated from the changes in the liquid junction potential to be about 1 ms. If not otherwise stated, drugs were preapplied for 20 s before starting the experiments.
Concentration-inhibition curves for the estimation of Kr (IC50 at −140 mV; Figure 2) or Kapp (Figure 6) were fitted to the Hill equation ID/IC= 1/1+([D]/IC50)^n (1) ID and IC are the current amplitudes in the presence and absence of the drug (D). [D] is the concentration of the drug. […]

hNav1.5 [5] = target: T1, hNav1.5; assay: Block development, interaction with the inactivated state: kinetic parameters (double-pulse protocol); settings: for remaining current at the longest inactivation time: prepulse −20 mV up to 32 s
Excerpt: The time constant (τ) of block development for the different concentrations of atomoxetine was estimated by single exponential fits of the form: I/Imax = S+ a1*e^(−t/τ1) (7) t denotes the time, a is the fraction of channels which is blocked, and S represents the residual current.
Association (kon in µM^−1s^−1) and dissociation rates (koff in s^−1) were estimated from the slope and the y-intercept of a linear regression where the inverse of the fast time constants (1/τ) was plotted vs. the drug concentration [D] […] 1/τ= koff+kon*[D] (8) The affinity for the inactivated state (Ki) was calculated according to: Ki= koff/kon (9)
Instead of this, we employed another double-pulse protocol in order to determine the time dependence of the interaction of atomoxetine with the inactivated state. The experimental scheme consisted of a conditioning prepulse to −20 mV for a variable duration (range: 0.002–32 s), a short recovery for 100 ms at −140 mV, followed by the test pulse to −20 mV (inset to Figure 5A). […] For estimation of rate constants the inverse of the time constants (1/τ) were plotted vs. the concentration of atomoxetine (Figure 5C).
The pulse protocol (inset) was applied in intervals of 20 s. The peak currents of the test pulse were normalized to the peak amplitude of the prepulse and plotted vs. its duration. Solid lines represent fits of single exponential functions to data obtained for control (open squares) or different concentrations of atomoxetine (B) Data normalized with respect to control (C) The inverse of the time constants of individual cells were plotted vs. the concentration of atomoxetine. […] N = 5.

hNav1.5 [6] = target: T1, hNav1.5; assay: Voltage dependence of activation, whole-cell patch clamp; format: cell-based; design: expressed in transfected cells; host or cells: tsA201 (HEK-293 derivative)
hNav1.5 [7] = target: T1, hNav1.5; assay: Use-dependent interaction (high frequency stimulation trains); settings: for relative current amplitude of the 50th pulse related to the first pulse: 1 ms test pulse; for remaining current amplitude (use-dependence, pulse duration series): 10 Hz (Figure 9B)
Procedure: To investigate whether atomoxetine also interacts with the open channel, we first tested for a possible use-dependency. All these experiments were carried out at a holding potential of −140 mV and a test pulse to −20 mV with its duration set to 1 ms. This short activation time was chosen to minimize the time the channels spent in the inactivated state. After establishing stable baseline values using infrequent activations every 5 s (0.2 Hz) a train of high frequency stimulation (1, 3 10 Hz) was started. For evaluation, the peak current amplitude of each pulse was divided by the amplitude of the first response of the high frequency stimulation train. […] For quantification, the remaining current amplitudes of the 50th pulse were related to the first pulse. […] In order to analyse further if atomoxetine prefers an interaction with the open or fast inactivated state, we increased the test pulse duration up to a factor of 20.
FIGURE 9 Analysis for use-dependence at a pulsing frequency of 10 Hz (A) After establishing stable control responses (activations every 5 s), atomoxetine was preincubated for 20 s before test pulses (1 ms) were applied at a frequency of 10 Hz. […] The amplitudes which were obtained from the high frequency stimulation are related to the first pulse of each train.

hNav1.5 [8] = target: T1, hNav1.5; assay: Slow inactivation (10 s conditioning prepulse); settings: slow inactivation fit (Eq. 5); for V50_1: N = 5
Procedure: Voltage dependence of activation was calculated in two steps: First, changes in driving force owing to the different test potentials were considered by calculating the conductance g according to g = I/V−ENa (2) Thereafter, normalized data were fitted with a Boltzmann equation of the form: g/gmax= 1/1+e^(V50 − V/k) (3) Voltage dependence of fast inactivation were fit using a Boltzmann equation of the form: I/Imax= 1/1+ e^(V − V50/k) (4) In case of slow inactivation Eq. 4 was extended by a second term and the additional parameter (S) which considers the steady-state level of the incomplete inactivation. I/Imax=(1−S)(a1/1+ e^(V− V501/k1)+ a2/1+ e^(V− V502/k2))+ S (5) Abbreviations used for voltage-dependent parameters: V and V50i are the actual membrane potentials and the potentials at which half maximal current (I)/conductance (g) occur, respectively. ENa indicates the reversal potential which was experimentally determined for each cell. The slope factors are given by ki and the relative amount of the individual terms are represented by ai. Constraint throughout: ∑i=1nai=1 .
In a next set of experiments, we directly investigated for a possible interaction with the slow inactivated state. To this end, similar experiments as shown in Figure 4 were conducted with the following deviations: the duration of the conditioning prepulse was set to 10 s, and a recovery period (100 ms) at −160 mV was inserted immediately before the test pulse to eliminate or minimize the contribution from fast-inactivation. […] Another hallmark for an interaction with the slow inactivated state is an ongoing increase in inhibition in the potential range (V50_2) where slow inactivation is expected to occur. In order to evaluate this we renormalized the data in the presence of atomoxetine with their respective control (Figure 7B).
FIGURE 7 Interaction with the slow-inactivated state (A) Infrequent (interval: 30 s) channel activations by step depolarisations to −20 mV were elicited after long lasting (10 s) conditioning prepulses to different potentials (inset). A short (100 ms) recovery period at −160 mV was inserted immediately before the test pulse. Data of normalized peak currents are plotted vs. the prepulse potential. Solid lines are fits according to Eq. 5 for control (open squares) and atomoxetine (3 µM) (filled symbols). […] (B) Plot of renormalized data was obtained by dividing the drug values by control values.

WCW-mutant = test system: WCW-mutant; design: method as in Poulin et al., 2014; settings: ref Poulin et al., 2014; cited from earlier work
hNav1.5 [9] = target: T1, hNav1.5; design: expressed in transfected cells; host or cells: tsA201 (HEK-293 derivative); method as in Poulin et al., 2014; settings: ref Poulin et al., 2014; cited from earlier work
F1760C = test system: F1760C; design: method as in Poulin et al., 2014; settings: anaesthetic binding site; ref Poulin et al., 2014; cited from earlier work

CNCC[C@@H](Oc1ccccc1C)c1ccccc1 [atomoxetine]
net shift in positive direction of fast inactivation midpoint (hNav1.5 [1]; 3 µM atomoxetine, 500 ms prepulse, corrected for endogenous shift): 0.3 mV
net drug-induced shift of half maximal fast inactivation (signed) (hNav1.5 [1]; 3 µM atomoxetine): +0.3 mV
negative shift of fast inactivation midpoint (net) (hNav1.5 [1]; 10 µM atomoxetine, 500 ms prepulse, corrected for endogenous shift): 0.9 mV
net drug-induced shift of half maximal fast inactivation (signed) (hNav1.5 [1]; 10 µM atomoxetine): −0.9 mV
IC50 (hNav1.5 [2]; Half-maximal effective concentrations (interaction with inactivated state), different experimental settings, abstract): 2000 to 3000 nM
Ki (hNav1.5 [2]; Ki (inactivated state), single experiment of Figure 6B, Eq. 6): 1850 nM
Ki (hNav1.5 [2]; affinity for the inactivated state (Ki), calculated from Kapp by Eq. 6, holding potential around half maximal inactivation, N = 5): 1590 ± 450 nM
IC50 (hNav1.5 [2]; apparent IC50 (IC50app), single experiment of Figure 6B, partly inactivated channels): 2270 nM
higher affinity for the inactivated state compared to the resting state (hNav1.5 [2]; depending on the applied protocol): about 50 fold
τ 1 (%) relative amount of component (hNav1.5 [3]; 3 µM, inactivation 10 s): 39.7 ± 2.2%
τ 1 (recovery time constant) (hNav1.5 [3]; 3 µM, inactivation 10 s): 5.8 ± 0.7 ms
τ 2 (%) relative amount of component (hNav1.5 [3]; 3 µM, inactivation 10 s): 22.7 ± 1.0%
τ 2 (recovery time constant) (hNav1.5 [3]; 3 µM, inactivation 10 s): 139 ± 37.2 ms
τ 3 (recovery time constant) (hNav1.5 [3]; 3 µM, inactivation 10 s): 3,524 ± 377 ms
τ 1 (%) relative amount of component (hNav1.5 [3]; 3 µM, inactivation 500 ms): 90.3 ± 2.0%
τ 2 (recovery time constant) (hNav1.5 [3]; 3 µM, inactivation 500 ms): 191.7 ± 74.2 ms
τ 1 (recovery time constant) (hNav1.5 [3]; 3 µM, inactivation 500 ms, recovery at −140 mV): 3.1 ± 0.2 ms
τ 1 (%) relative amount of component (hNav1.5 [3]; 10 µM, inactivation 10 s): 15.0 ± 1.6%
τ 1 (recovery time constant) (hNav1.5 [3]; 10 µM, inactivation 10 s): 12.4 ± 0.3 ms
τ 2 (%) relative amount of component (hNav1.5 [3]; 10 µM, inactivation 10 s): 17.2 ± 2.9%
τ 2 (recovery time constant) (hNav1.5 [3]; 10 µM, inactivation 10 s): 417 ± 152 ms
τ 3 (recovery time constant) (hNav1.5 [3]; 10 µM, inactivation 10 s): 4,859 ± 332 ms
τ 1 (%) relative amount of component (hNav1.5 [3]; 10 µM, inactivation 500 ms): 86.2 ± 1.8%
τ 1 (recovery time constant) (hNav1.5 [3]; 10 µM, inactivation 500 ms): 4.7 ± 0.3 ms
τ 2 (recovery time constant) (hNav1.5 [3]; 10 µM, inactivation 500 ms): 1,259 ± 351 ms
IC50 (hNav1.5 [4]; half maximal effective concentration (Kr, IC50 at −140 mV; affinity for the resting state), drug preapplied 30 s): ~120000 nM and 120000 nM and 119000 nM
Hill coefficient (hNav1.5 [4]; tonic block): 1.47 ± 0.06
Ki (hNav1.5 [5]): 2570 nM
remaining current at the longest inactivation time (hNav1.5 [5]; 3 µM atomoxetine, control 70.0 ± 14.0%): 32.6 ± 9.8%
remaining current at the longest inactivation time (hNav1.5 [5]; 10 µM atomoxetine): 11.5 ± 8.0%
time constant of block development (hNav1.5 [5]; 10 µM atomoxetine, single exponential fit, normalized to control): 4.3 ± 0.1 s
kon (hNav1.5 [5]; read-out: rate constant for association (kon)): 18500 M⁻¹ s⁻¹
koff (hNav1.5 [5]; read-out: rate constant for dissociation (koff)): 0.047 s⁻¹
slope of the activation curve (hNav1.5 [6]; 3 µM atomoxetine): 6.6 ± 0.6 mV
midpoint of the activation curve (half maximal activation) (hNav1.5 [6]; 3 µM atomoxetine, control −52.6 ± 3.5 mV): −54.5 ± 3.9 mV
midpoint of the activation curve (hNav1.5 [6]; 10 µM atomoxetine): −55.5 ± 4.1 mV
slope of the activation curve (hNav1.5 [6]; 10 µM atomoxetine): 6.9 ± 0.6 mV
relative current amplitude of the 50th pulse related to the first pulse (hNav1.5 [7]; 1 Hz, 1 µM atomoxetine): 0.96 ± 0.01
relative current amplitude of the 50th pulse related to the first pulse (hNav1.5 [7]; 1 Hz, 3 µM atomoxetine): 0.89 ± 0.05
relative current amplitude of the 50th pulse related to the first pulse (hNav1.5 [7]; 1 Hz, 10 µM atomoxetine): 0.69 ± 0.09
relative current amplitude of the 50th pulse related to the first pulse (hNav1.5 [7]; 3 Hz, 1 µM atomoxetine): 0.95 ± 0.02
relative current amplitude of the 50th pulse related to the first pulse (hNav1.5 [7]; 3 Hz, 3 µM atomoxetine): 0.85 ± 0.07
relative current amplitude of the 50th pulse related to the first pulse (hNav1.5 [7]; 3 Hz, 10 µM atomoxetine): 0.61 ± 0.09
relative current amplitude of the 50th pulse related to the first pulse (hNav1.5 [7]; 10 Hz, 3 µM atomoxetine): 0.79 ± 0.03
relative current amplitude of the 50th pulse related to the first pulse (hNav1.5 [7]; 10 Hz, 10 µM atomoxetine): 0.48 ± 0.07
remaining current amplitude (use-dependence, pulse duration series) (hNav1.5 [7]; activation time 1 ms, 10 µM atomoxetine): 0.54 ± 0.03
remaining current amplitude (use-dependence, pulse duration series) (hNav1.5 [7]; activation time 5 ms, 10 µM atomoxetine): 0.43 ± 0.03
remaining current amplitude (use-dependence, pulse duration series) (hNav1.5 [7]; activation time 20 ms, 10 µM atomoxetine): 0.37 ± 0.09
V50_2 (hNav1.5 [8]; 3 µM): −65.5 ± 2.8 mV
a1 (hNav1.5 [8]; 3 µM): 37.5 ± 18.7%
k1 (hNav1.5 [8]; 3 µM): 5.2 ± 0.4 mV
k2 (hNav1.5 [8]; 3 µM): 31.8 ± 1.9 mV
V50_1 (hNav1.5 [8]; 3 µM): −101.3 ± 0.3 mV
V50_2 (hNav1.5 [8]; 10 µM): −102.7 ± 3.9 mV
a1 (hNav1.5 [8]; 10 µM): 71.1 ± 19.7%
k1 (hNav1.5 [8]; 10 µM): 5.9 ± 0.2 mV
k2 (hNav1.5 [8]; 10 µM): 34.2 ± 4.7 mV
V50_1 (hNav1.5 [8]; 10 µM): −107.7 ± 0.2 mV

CNCCC(Oc1ccc(C(F)(F)F)cc1)c1ccccc1 (stereo not shown) [fluoxetine]
ratio for the interaction with the resting state (peak current) vs. open channel (late current) (WCW-mutant): 3 fold
ratio of affinity at holding potential −140 mV (resting state) versus −90 mV (hNav1.5 [9]): less than 10 fold
ratio in affinity between F1760C and wildtype (F1760C): about 2 fold

Reference: article PMC7959846, “Block of Voltage-Gated Sodium Channels by Atomoxetine in a State- and Use-dependent Manner” (Frontiers in Pharmacology, 2021)
